Data taken from ChEMBL document CHEMBL5113443, “Design, synthesis and properties of peptide inhibitors based on BRCA1856-871” (Bioorg Med Chem Lett, 2022).
Where a SMILES comes first, the peptide text is derived from it. The star is where a group is joined. Nicotinoyl(6-CF3) = O=C(c1ccc(C(F)(F)F)nc1)*; X1 = O=C(c1cncc(C(F)(F)F)c1)*; X5 = O=C(c1ccc[n+]([O-])c1)*; Nicotinoyl = O=C(c1cccnc1)*; X2 = O=C(c1cccnc1C(F)(F)F)*; X3 = O=C(c1cccnc1Br)*; X4 = Cc1ccncc1C(=O)*; X6 = O=C(c1cccnc1S)*

Legend:
[1] = target: T1, DNA repair protein RAD51 homolog 1 (Homo sapiens) (UniProt Q06609); assay: Binding affinity to RAD51 (158 to 180 residues) (unknown origin) assessed as binding constant by fluorescence spectroscopy
T1 sequence (whole entry): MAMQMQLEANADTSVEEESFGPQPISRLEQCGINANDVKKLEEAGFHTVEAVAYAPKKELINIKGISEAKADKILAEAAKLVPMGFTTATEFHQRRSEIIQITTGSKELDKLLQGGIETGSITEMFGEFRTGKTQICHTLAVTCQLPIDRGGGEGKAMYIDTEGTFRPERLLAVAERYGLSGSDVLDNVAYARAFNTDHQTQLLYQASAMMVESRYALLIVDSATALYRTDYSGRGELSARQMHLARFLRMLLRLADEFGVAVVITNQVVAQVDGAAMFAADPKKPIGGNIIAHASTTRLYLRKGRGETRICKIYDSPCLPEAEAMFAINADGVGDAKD

[2] = test system: HEK293; assay: Cytotoxicity against HEK293 cells assessed as reduction in cell viability at 200 uM; assay type: toxicity, cell-based; details: human, hek293, 200 µM
[3] = target: T1, DNA repair protein RAD51 homolog 1 (Homo sapiens); assay: Binding affinity to RAD51 (158 to 180 residues) (unknown origin) assessed as quenching rate constant by fluorescence spectroscopy
[4] = test system: MCF7; assay: Cytotoxicity against human MCF7 cells assessed as cell viability at 100 uM relative to control; assay type: functional; details: read-out: Activity
[5] = target: T1, DNA repair protein RAD51 homolog 1 (Homo sapiens); assay: Binding affinity to RAD51 (158 to 180 residues) (unknown origin) assessed as alpha-helical content at 15 uM by circular dichroism spectroscopy (reference value: 26.9%)
[6] = target: T1, DNA repair protein RAD51 homolog 1 (Homo sapiens); assay: Binding affinity to RAD51 (158 to 180 residues) (unknown origin) assessed as beta-turn content at 15 uM by circular dichroism spectroscopy (reference value: 16.2%)
[7] = target: T1, DNA repair protein RAD51 homolog 1 (Homo sapiens); assay: Binding affinity to RAD51 (158 to 180 residues) (unknown origin) assessed as random coil content at 15 uM by circular dichroism spectroscopy (reference value: 39.2%)
[8] = target: T1, DNA repair protein RAD51 homolog 1 (Homo sapiens); assay: Binding affinity to RAD51 (158 to 180 residues) (unknown origin) assessed as beta-sheet content at 15 uM by circular dichroism spectroscopy (reference value: 17.7%)
[9] = target: T1, DNA repair protein RAD51 homolog 1 (Homo sapiens); assay: Binding affinity to RAD51 (158 to 180 residues) (unknown origin) assessed as reduction in fluorescence intensity by fluorescence spectroscopy; details: dose 6-30 µM, DDE = dose-dependent effect

| SMILES | Binding constant [1] | Activity [2] | Kq [3] | viability at 100 µM [4] | Activity [5] | Activity [6] | Activity [7] | Activity [8] | Activity [9] |
| --- | --- | --- | --- | --- | --- | --- | --- | --- | --- |
| CC(C)C[C@H](NC(=O)[C@H](Cc1ccc(O)cc1)NC(=O)c1cncc(C(F)(F)F)c1)C(=O)N[C@@H](CCC(N)=O)C(=O)N[C@@H](CC(N)=O)C(=O)N[C@H](C(=O)N[C@@H](Cc1ccccc1)C(=O)N[C@@H](CCCCN)C(=O)N[C@H](C(=O)N[C@@H](CO)C(=O)N[C@@H](CCCCN)C(=O)N[C@@H](CCCNC(=N)N)C(=O)N[C@@H](CCC(N)=O)C(=O)N[C@@H](CO)C(=O)N[C@@H](Cc1ccccc1)C(=O)N[C@@H](C)C(=O)N1CCC[C@H]1C(N)=O)C(C)C)[C@@H](C)O (X1-YLQNTFKVSKRQSFAP-NH2) | 1.56 10^4/M | Non-Toxic | 1.32 10^12/M | 71% | 46.7% | 16.5% | 23.4% | 13.4% | – |
| CC(C)C[C@H](NC(=O)[C@H](Cc1ccc(O)cc1)NC(=O)c1cccnc1S)C(=O)N[C@@H](CCC(N)=O)C(=O)N[C@@H](CC(N)=O)C(=O)N[C@H](C(=O)N[C@@H](Cc1ccccc1)C(=O)N[C@@H](CCCCN)C(=O)N[C@H](C(=O)N[C@@H](CO)C(=O)N[C@@H](CCCCN)C(=O)N[C@@H](CCCNC(=N)N)C(=O)N[C@@H](CCC(N)=O)C(=O)N[C@@H](CO)C(=O)N[C@@H](Cc1ccccc1)C(=O)N[C@@H](C)C(=O)N1CCC[C@H]1C(N)=O)C(C)C)[C@@H](C)O (X6-YLQNTFKVSKRQSFAP-NH2) | 0.72 10^4/M | – | 5.85 10^12/M | – | 36.2% | 28.8% | 24.2% | 10.8% | – |
| Cc1ccncc1C(=O)N[C@@H](Cc1ccc(O)cc1)C(=O)N[C@@H](CC(C)C)C(=O)N[C@@H](CCC(N)=O)C(=O)N[C@@H](CC(N)=O)C(=O)N[C@H](C(=O)N[C@@H](Cc1ccccc1)C(=O)N[C@@H](CCCCN)C(=O)N[C@H](C(=O)N[C@@H](CO)C(=O)N[C@@H](CCCCN)C(=O)N[C@@H](CCCNC(=N)N)C(=O)N[C@@H](CCC(N)=O)C(=O)N[C@@H](CO)C(=O)N[C@@H](Cc1ccccc1)C(=O)N[C@@H](C)C(=O)N1CCC[C@H]1C(N)=O)C(C)C)[C@@H](C)O (X4-YLQNTFKVSKRQSFAP-NH2) | 0.76 10^4/M | – | 1.77 10^12/M | – | 37.9% | 18.1% | 32.7% | 11.3% | – |
| CC(C)C[C@H](NC(=O)[C@H](Cc1ccc(O)cc1)NC(=O)c1ccc(C(F)(F)F)nc1)C(=O)N[C@@H](CCC(N)=O)C(=O)N[C@@H](CC(N)=O)C(=O)N[C@H](C(=O)N[C@@H](Cc1ccccc1)C(=O)N[C@@H](CCCCN)C(=O)N[C@H](C(=O)N[C@@H](CO)C(=O)N[C@@H](CCCCN)C(=O)N[C@@H](CCCNC(=N)N)C(=O)N[C@@H](CCC(N)=O)C(=O)N[C@@H](CO)C(=O)N[C@@H](Cc1ccccc1)C(=O)N[C@@H](C)C(=O)N1CCC[C@H]1C(N)=O)C(C)C)[C@@H](C)O ({Nicotinoyl(6-CF3)}-YLQNTFKVSKRQSFAP-NH2) | 1.97 10^4/M | Non-Toxic | 1.24 10^12/M | 79.1% | 48.3% | 18.4% | 22.1% | 11.2% | – |
| CC(C)C[C@H](NC(=O)[C@H](Cc1ccc(O)cc1)NC(=O)c1cccnc1)C(=O)N[C@@H](CCC(N)=O)C(=O)N[C@@H](CC(N)=O)C(=O)N[C@H](C(=O)N[C@@H](Cc1ccccc1)C(=O)N[C@@H](CCCCN)C(=O)N[C@H](C(=O)N[C@@H](CO)C(=O)N[C@@H](CCCCN)C(=O)N[C@@H](CCCNC(=N)N)C(=O)N[C@@H](CCC(N)=O)C(=O)N[C@@H](CO)C(=O)N[C@@H](Cc1ccccc1)C(=O)N[C@@H](C)C(=O)N1CCC[C@H]1C(N)=O)C(C)C)[C@@H](C)O (Nicotinoyl-YLQNTFKVSKRQSFAP-NH2) | 1.26 10^4/M | Non-Toxic | 0.96 10^12/M | 80.9% | 43.4% | 20.1% | 22.6% | 13.9% | – |
| CC(C)C[C@H](NC(=O)[C@H](Cc1ccc(O)cc1)NC(=O)c1cccnc1C(F)(F)F)C(=O)N[C@@H](CCC(N)=O)C(=O)N[C@@H](CC(N)=O)C(=O)N[C@H](C(=O)N[C@@H](Cc1ccccc1)C(=O)N[C@@H](CCCCN)C(=O)N[C@H](C(=O)N[C@@H](CO)C(=O)N[C@@H](CCCCN)C(=O)N[C@@H](CCCNC(=N)N)C(=O)N[C@@H](CCC(N)=O)C(=O)N[C@@H](CO)C(=O)N[C@@H](Cc1ccccc1)C(=O)N[C@@H](C)C(=O)N1CCC[C@H]1C(N)=O)C(C)C)[C@@H](C)O (X2-YLQNTFKVSKRQSFAP-NH2) | 4.07 10^4/M | Non-Toxic | 0.61 10^12/M | 81.5% | 51.3% | 11.6% | 10.8% | 26.3% | – |
| CC(C)C[C@H](NC(=O)[C@H](Cc1ccc(O)cc1)NC(=O)c1cccnc1Br)C(=O)N[C@@H](CCC(N)=O)C(=O)N[C@@H](CC(N)=O)C(=O)N[C@H](C(=O)N[C@@H](Cc1ccccc1)C(=O)N[C@@H](CCCCN)C(=O)N[C@H](C(=O)N[C@@H](CO)C(=O)N[C@@H](CCCCN)C(=O)N[C@@H](CCCNC(=N)N)C(=O)N[C@@H](CCC(N)=O)C(=O)N[C@@H](CO)C(=O)N[C@@H](Cc1ccccc1)C(=O)N[C@@H](C)C(=O)N1CCC[C@H]1C(N)=O)C(C)C)[C@@H](C)O (X3-YLQNTFKVSKRQSFAP-NH2) | 0.18 10^4/M | – | 1.7 10^12/M | – | 37.7% | 21.6% | 27.6% | 13.1% | – |
| CC(C)C[C@H](NC(=O)[C@H](Cc1ccc(O)cc1)NC(=O)c1ccc[n+]([O-])c1)C(=O)N[C@@H](CCC(N)=O)C(=O)N[C@@H](CC(N)=O)C(=O)N[C@H](C(=O)N[C@@H](Cc1ccccc1)C(=O)N[C@@H](CCCCN)C(=O)N[C@H](C(=O)N[C@@H](CO)C(=O)N[C@@H](CCCCN)C(=O)N[C@@H](CCCNC(=N)N)C(=O)N[C@@H](CCC(N)=O)C(=O)N[C@@H](CO)C(=O)N[C@@H](Cc1ccccc1)C(=O)N[C@@H](C)C(=O)N1CCC[C@H]1C(N)=O)C(C)C)[C@@H](C)O (X5-YLQNTFKVSKRQSFAP-NH2) | 0.89 10^4/M | – | 1.34 10^12/M | – | 40.6% | 14% | 32.2% | 13.2% | – |
| CC(C)C[C@H](NC(=O)[C@@H](N)Cc1ccc(O)cc1)C(=O)N[C@@H](CCC(N)=O)C(=O)N[C@@H](CC(N)=O)C(=O)N[C@H](C(=O)N[C@@H](Cc1ccccc1)C(=O)N[C@@H](CCCCN)C(=O)N[C@H](C(=O)N[C@@H](CO)C(=O)N[C@@H](CCCCN)C(=O)N[C@@H](CCCNC(=N)N)C(=O)N[C@@H](CCC(N)=O)C(=O)N[C@@H](CO)C(=O)N[C@@H](Cc1ccccc1)C(=O)N[C@@H](C)C(=O)N1CCC[C@H]1C(=O)O)C(C)C)[C@@H](C)O (H-YLQNTFKVSKRQSFAP-OH) | 0.33 10^4/M | Non-Toxic | 1.13 10^12/M | 90.6% | 37.1% | 26.4% | 18% | 18.5% | Dde |
